Reference: ChEMBL document CHEMBL4330083, “Synthesis and evaluation of isoprenylation-resveratrol dimer derivatives against Alzheimer's disease” (Eur J Med Chem, 2019)

Assays:
[1] = target: T1, Amine oxidase [flavin-containing] A (Homo sapiens, UniProt P21397); assay: Inhibition of human MAO-A preincubated for 15 mins followed by p-tyramine substrate addition and measured after 20 mins by Amplex red reagent based fluorescence assay
T1 sequence (P21397 whole entry): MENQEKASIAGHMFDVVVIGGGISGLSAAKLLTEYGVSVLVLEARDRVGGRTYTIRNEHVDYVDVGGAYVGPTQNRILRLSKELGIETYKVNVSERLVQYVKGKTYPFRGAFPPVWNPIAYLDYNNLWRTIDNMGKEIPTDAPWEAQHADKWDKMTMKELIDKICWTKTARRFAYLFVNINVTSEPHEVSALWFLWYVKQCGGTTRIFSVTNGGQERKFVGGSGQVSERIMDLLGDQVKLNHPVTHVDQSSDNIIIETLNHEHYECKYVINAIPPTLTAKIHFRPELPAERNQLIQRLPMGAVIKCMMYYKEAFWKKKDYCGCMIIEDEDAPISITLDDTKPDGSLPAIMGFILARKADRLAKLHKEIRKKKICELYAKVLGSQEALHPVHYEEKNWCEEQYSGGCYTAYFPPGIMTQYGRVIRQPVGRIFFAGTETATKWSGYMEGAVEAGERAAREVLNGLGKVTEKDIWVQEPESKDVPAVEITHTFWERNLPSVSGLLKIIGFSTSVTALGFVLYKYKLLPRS

[2] = target: T2, Amine oxidase [flavin-containing] B (Homo sapiens, UniProt P27338)
T2 sequence (P27338 whole entry): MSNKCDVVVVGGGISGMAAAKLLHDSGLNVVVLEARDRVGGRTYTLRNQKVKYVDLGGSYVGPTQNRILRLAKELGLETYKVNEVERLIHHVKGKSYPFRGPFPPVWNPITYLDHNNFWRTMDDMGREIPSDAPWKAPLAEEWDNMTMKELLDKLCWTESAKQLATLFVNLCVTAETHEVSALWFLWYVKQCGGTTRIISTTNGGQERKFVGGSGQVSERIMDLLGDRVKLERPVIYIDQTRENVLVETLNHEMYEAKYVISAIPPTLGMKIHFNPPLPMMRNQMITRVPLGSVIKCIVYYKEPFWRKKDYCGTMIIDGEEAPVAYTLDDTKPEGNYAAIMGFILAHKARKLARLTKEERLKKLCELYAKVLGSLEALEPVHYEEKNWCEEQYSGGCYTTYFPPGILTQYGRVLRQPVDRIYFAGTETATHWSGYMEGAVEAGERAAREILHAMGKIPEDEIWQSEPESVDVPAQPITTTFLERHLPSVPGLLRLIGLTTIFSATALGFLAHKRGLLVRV

Homo sapiens = species on record: Homo sapiens; assay: Selectivity ratio of IC50 for human MAO-A to IC50 for human MAO-B
[3] = Antioxidant activity assessed as inhibition of DPPH free radical after 30 mins by UV-Visible spectrophotometric analysis; type: functional
[4] = Antioxidant activity assessed as ABTS radical cation scavenging activity by measuring trolox equivalents after 150 mins; type: functional
[5] = Antioxidant activity assessed as ferric ion reduction by measuring trolox equivalents after 3 to 5 mins by FRAP assay; type: functional
in vitro = assay: in vitro; parameters: dose or concentration left out as unconfirmed; settings: PAMPA
Description: Effective permeability of the compound at 100 mg/ml incubated for 16 hrs by PAMPA-BBB assay

Structure (SMILES)	IC50 [1]	IC50 [2]	Ratio IC50 (Homo sapiens)	IC50 [3]	Papp at 16 h (in vitro)	Activity [4]	Activity [5]
CC(C)=CCc1c(O)cc([C@@H](Oc2ccc(/C=C/c3cc(O)c4c(c3)OC(C)(C)CC4)cc2)[C@@H](C)c2ccc(O)cc2)cc1O	18.9 µM	9.23 µM	2.05	150 µM		0.89 equiv	1.26 equiv
C[C@]12CC[C@@H]3c4ccc(O)cc4CC[C@H]3[C@@H]1CC[C@@H]2O [ESTRADIOL]					13.3 ×10⁻⁶ cm/s		
Oc1ccc(/C=C/c2cc(O)cc(O)c2)cc1 [RESVERATROL]		5.01 µM		79.9 µM		1.07 equiv	0.98 equiv
CO[C@@H](c1ccc(O)cc1)[C@H](Oc1ccc(/C=C/c2cc(O)c3c(c2)OC(C)(C)CC3)cc1)c1cc(O)c(CC=C(C)C)c(O)c1	10.6 µM	1.9 µM	5.58	185 µM		0.29 equiv	1.04 equiv

The next lines start with results.

IC50 [1]	IC50 [2]	Ratio IC50 (Homo sapiens)	IC50 [3]	Papp at 16 h (in vitro)	Structure (SMILES)	Activity [4]	Activity [5]
8.93 µM	2.39 µM	3.74	76.8 µM		Oc1ccc([C@H]2Oc3ccc(/C=C/c4cc(O)cc(O)c4)cc3[C@@H]2c2cc(O)cc(O)c2)cc1		
11.3 µM	3.62 µM	3.1	73.3 µM		CC(C)=CCc1c(O)cc(/C=C/c2ccc(O)cc2)cc1O [ARACHIDIN-2]	1.23 equiv	1.03 equiv
			49.8 µM		Cc1c(C)c2c(c(C)c1O)CCC(C)(C(=O)O)O2 (stereo not given) [TROLOX]	1 equiv	1 equiv
